The subject of one series is rat. Briefly: Acute toxicology following intravenous administration of a single dose. In kind it is in vivo. The method, then: 1. Acute toxicology of 2,3-dimethoxy-N-methylbenzhydroxamic acid (XIII) following intra venous administration of a single dose.
In the preliminary phase, 1 male and 1 female rat were dosed at 200 mg/kg and observed for a period of 7 days. […] A further group of 1 male and 1 female animals was dosed at a dose level of 300 mg/kg. […] Recovery occurred approximately 4 hours after dosing.
In the main phase of the study, 1 group of 5 male and 5 female animals was dosed at 300 mg/kg and observed for a period of 14 days. […] Recovery occurred by Day 3.

Another series has as its system CHO-K1 cells. Briefly: In vitro micronucleus assay (cytokinesis-block, OECD 487, GLP) with and without S9 metabolic activation. In kind it is cell-based. The settings on record: for concentration-related increase in frequency of MN: Chi-square test for trend; for micronucleus frequency / MN formation compared with the concurrent negative control: with and without metabolic activation, Chi-square test with Yates' correction. The source says: The in vitro Micronucleus Assay (MNA) is a mutagenic test system for the detection of chemicals that induce the formation of small membrane-bound DNA fragments (micronuclei (MN)) in the cytoplasm of interphase cells. The MNA, used for regulatory purposes measures formation of chromosomal changes following DNA damage induced by the compounds under test, and is used to predict the genotoxic potential of pharmaceuticals, industrial chemicals, food additives and cosmetic ingredients.
MN originate from chromosome fragments or whole chromosomes that are not included in the main daughter nuclei during nuclear division. They reflect chromosome damage and may thus provide a marker of genotoxicity and even early-stage carcinogenesis. The most commonly used method in mammalian cells is the cytokinesis-block micronucleus (CBMN) assay. In the CBMN assay, MN are scored after a single cell division using binucleated cultured cells (accumulated using cytochalasin B) to eliminate the confounding effect of altered cell division kinetics on the MN index.
The formation of MN is a consequence of chromosomal breakage and/or spindle-fiber dysfunction induced by clastogens and/or aneuploidogens.
DMSO controls were run concurrently for each experiment.
Micronucleus frequency was analyzed in at least 2000 binucleate cells per concentration and control.
In order to assess genotoxic potential. […] Statistical analysis of the MN frequency and binucleate cells with MN was performed using the Chi-square test with Yates' correction. To examine the dose-response relationship in frequencies of the micronuclei Chi-square test for trend was performed.

[1] abbreviates: both, rat, in vivo, iv, 300 mg/kg.
Setting [2] is: rat, single i.v. dose of 300 mg/kg body weight.

Structures are written as SMILES. Entries after “also recorded” stand apart in the source; their conditions may differ.

Here are results for 3 compounds from patent EP4248959A1, “PREPARATION FOR REDUCTION OF PATHOLOGICAL IRON OVERLOAD” (Dr. Franz Köhler Chemie GmbH, priority 2022, dated 2023).

On to `COc1cccc(C(=O)N(C)O)c1OC` [XIII, 2,3-dimethoxy-N-methylbenzhydroxamic acid], for which, in the series on rat (setting [1]), the recovery was at most 3 days and the recovery after dosing result is recorded as “approximately 4 hours”. The mortality result in the series on rat (main phase, 5 male and 5 female rats, 300 mg/kg i.v. single dose, observed 14 days) is “No mortality occurred”. The mortality entry with rat (preliminary phase, 1 male and 1 female rat, 200 mg/kg i.v. single dose, observed 7 days) is “No mortality”. Besides, in the series with rat (rat, in vivo), the necropsy examination entry is reported as “No abnormalities”. In addition, in the series with rat (rat, in vivo, iv, 200 mg/kg), the clinical signs result was “no clinical signs”. Also, in the series on rat (setting [2]), the “tolerability of dose level” value is given as “reasonably tolerated” and the “toxic effect (overall conclusion)” value is “slight toxic effect”.
Turning to `COc1ccc(C(=O)N(C)O)cc1OC` [LK 614, 3,4-dimethoxy-N-methylbenzhydroxamic acid], in the series with CHO-K1 cells, the “dose-dependent genetic toxicity (summary)” value is “did not produce dose-dependent genetic toxicity”; the “concentration-related increase in frequency of MN” value is listed as “not observed; also recorded: no dose-related increase”; the “micronucleus frequency / MN formation compared with the concurrent negative control” value was “did not exhibit statistically significant increase; also recorded: None of tested concentrations of test item, LK 614, exhibits a statistically significant increase”. The “genotoxicity (MNA test result)” value in the series with CHO-K1 cells (+S9 short, -S9 short and -S9 extended treatment) is “no genotoxicity”.
Take `O=P1(N(CCCl)CCCl)NCCCO1` (centres unmarked) [CP, cyclophosphamide, reference compound]: in the series with CHO-K1 cells, the “concentration-related increase in frequency of MN” value is “increased” and the “micronucleus frequency / MN formation compared with the concurrent negative control” value is reported as “significantly induced”.
